For assay [1], the target named is T1, LXRβ/GAL4 hybrid (LBD of human LXRβ), compared with LXRα/GAL4 (Homo sapiens, UniProt P55055).
T1 construct: expressed in transfected cells; host or cells: CHOK-1 cells stably expressing the hybrid and pG5luc
T1 sequence (P55055 222-460 limits assumed): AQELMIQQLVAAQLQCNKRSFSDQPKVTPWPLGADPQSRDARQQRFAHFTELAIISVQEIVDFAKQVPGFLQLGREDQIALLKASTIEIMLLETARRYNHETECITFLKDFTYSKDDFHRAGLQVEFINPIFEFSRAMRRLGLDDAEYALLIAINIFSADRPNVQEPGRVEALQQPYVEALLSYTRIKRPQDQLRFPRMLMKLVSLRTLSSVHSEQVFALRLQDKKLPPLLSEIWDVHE
Description: Transactivation assay (GAL4-responsive luciferase reporter). Particulars: CHOK-1 cells stably expressing LXRα/GAL4 or LXRβ/GAL4 and pG5luc; 0.01-10 μM, 24 hours; % eff relative to T0901317 at 10 μM = 100; data in FIGS. only. Type of assay: cell-based. From the text:
The ligand-binding domain (LBD) of a human LXRα and LXRβ cDNA was inserted adjacent to an yeast GAL4-transcription factor DNA-binding domain (DBD) of a mammal expression vector pBIND (Promega) to prepare an expression construct, thereby to produce pBIND-LXRα/GAL4 and pBIND-LXRβ/GAL4, respectively. PG5luc, a GAL4-responsive reporter construct, is a known vector that is available from Promega, and contains 5 copies of GAL4-response element located adjacent to the promoter as well as a luciferase reporter gene.
An LXRα/GAL4 or LXRβ/GAL4 hybrid and GAL4-responsive reporter vector pG5luc-stable-expression CHOK-1 cells were seeded under 5% CO2 wet atmosphere at 37° C., at 20,000 cells/well on a 96-well plate containing HAM-F12 medium containing 10% […] bovine fetal serum, 100 units/ml of penicillin G, and 100 μg/ml of streptomycin sulfate. […] By using Bright-Glo (Promega) as a luciferase assay substrate, and measuring the luminescence intensity with luminometer LB960 (Berthold Technologies), the effect of the test compound on the activation of luciferase transcription via the LXRα- or LXRβ-LBD was measured. At the same time, T0901317 (the compound of Example 12 of WO2000/54759) and WAY-254011 (compound 4 of Hu et al., Bioorg. Med. Chem. Lett., 18, pp. 54-59, 2008) were assessed as comparative compounds. […]
For orientation: In a reporter assay the amount or activity of a reporter protein is the signal.

The target in a further assay is T2, LXRβ (versus LXRα) (Homo sapiens, UniProt P55055).
T2 sequence (P55055 1-460): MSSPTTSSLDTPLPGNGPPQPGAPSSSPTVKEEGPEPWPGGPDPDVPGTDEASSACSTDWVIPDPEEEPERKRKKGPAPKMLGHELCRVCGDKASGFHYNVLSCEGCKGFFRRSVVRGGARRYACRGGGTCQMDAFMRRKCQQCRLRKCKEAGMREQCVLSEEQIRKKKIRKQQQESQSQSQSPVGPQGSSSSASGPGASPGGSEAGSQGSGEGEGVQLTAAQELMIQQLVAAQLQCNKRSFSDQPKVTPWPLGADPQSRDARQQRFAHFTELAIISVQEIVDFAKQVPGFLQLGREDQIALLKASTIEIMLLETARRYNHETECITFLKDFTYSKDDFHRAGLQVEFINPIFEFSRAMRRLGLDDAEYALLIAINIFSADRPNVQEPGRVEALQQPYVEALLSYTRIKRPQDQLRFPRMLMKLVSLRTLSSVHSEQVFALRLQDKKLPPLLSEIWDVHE
The settings on record: from Hu et al., Bioorg. Med. Chem. Lett., 18, pp. 54-59, 2008; cited from earlier work.

As to `O=C(O)Cc1ccc(COc2cccc(-c3c(Cc4ccccc4)cnc4c(C(F)(F)F)cccc34)c2)cc1` [WAY-254011], the “LXRβ-selective agonist effect (luciferase activity via LXRα- or LXRβ-LBD)” value in assay [1] is “not found to have an LXRβ-selective agonist effect”. Besides, on LXRβ (versus LXRα), the “LXRβ-selective binding affinity (α/β ratio)” value is listed as 1 to 5.

The record behind these values is US8008306B2, “Quinoline compounds” (Kowa Company, Ltd., priority 2008, dated 2011).
